Test results reported in patent US20230129359A1, “MUSCARINIC RECEPTOR 4 ANTAGONISTS AND METHODS OF USE” (Neurocrine Biosciences, Inc., priority 2020, published 2023).

What was measured:
[1] = target: T1, human M4 receptor (Homo sapiens, UniProt P08173); experiment: Radioligand ([3H]N-methylscopolamine) binding assay, membranes from CHO cells expressing human M4 receptor; conditions: Ki against human M4 receptor; membranes from CHO cells; tritiated N-methylscopolamine 1.5 nM; read-out: K
T1 construct: expressed in transfected cells; host or cells: CHO cells
T1 sequence (P08173 1-479): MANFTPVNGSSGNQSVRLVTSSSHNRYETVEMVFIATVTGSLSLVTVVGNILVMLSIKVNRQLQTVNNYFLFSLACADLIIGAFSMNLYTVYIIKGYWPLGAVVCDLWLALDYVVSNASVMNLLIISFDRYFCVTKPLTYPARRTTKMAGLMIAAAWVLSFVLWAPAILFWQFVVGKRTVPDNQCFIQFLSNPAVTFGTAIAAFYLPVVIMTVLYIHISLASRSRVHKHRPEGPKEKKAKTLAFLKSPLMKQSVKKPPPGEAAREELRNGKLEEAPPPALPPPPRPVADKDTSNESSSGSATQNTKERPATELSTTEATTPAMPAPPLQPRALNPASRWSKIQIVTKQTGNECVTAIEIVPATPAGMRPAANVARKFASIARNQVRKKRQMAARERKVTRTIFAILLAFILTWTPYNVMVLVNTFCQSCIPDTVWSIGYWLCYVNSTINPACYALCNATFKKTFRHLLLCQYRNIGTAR
Method in brief: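 Competition binding used CHO-cell membranes expressing human M4 with 1.5 nM [3H]N-methylscopolamine and twelve compound concentrations ([…]). Incubation was 90 minutes at 37 °C in 50 mM HEPES, 100 mM NaCl, 5 mM MgCl2, 1 mM EDTA, pH 7.4. Bound ligand was collected by filtration onto PEI-treated glass fibre for Ki.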

[2] = target: T2, Human muscarinic 4 receptor (CHRM4) (Homo sapiens, UniProt P08173); experiment: Fluorescence-based functional calcium assay, antagonism of acetylcholine response in CHO-K1 cells with Gα16; type: cell-based; conditions: inhibition of the acetylcholine response
T2 construct: host or cells: CHO-K1
T2 sequence (P08173 1-479): T1 sequence (P08173 1-479)
Procedure: Functional antagonism of acetylcholine responses was evaluated using a fluorescence-based functional calcium assay. Acetylcholine binding to the muscarinic receptors activates G-proteins. Human muscarinic 4 receptor (CHRM4) was stably expressed in CHO-K1 cells and a promiscuous Gα16 construct is co-transfected. This cell line was commercially available through PerkinElmer (product number ES-213-A). Following ligand binding, activation of the Ga16 subunit induces the release of calcium from the endoplasmic reticulum. Prior to ligand screening, the receptor-expressing cells were loaded with a fluorescent calcium indicator, FLIPR Calcium 6 (Molecular Devices). Antagonist activity of the compounds was determined as the EC50 for inhibition of the acetylcholine response. The assay buffer used was a 1:1 solution of buffer (1× Hank's balanced salt solution plus 20 mM HEPES buffer, pH 7.4) and cell medium (Ham's F-12, 10% FBS, 0.4 mg/mL Geneticin, 0.25 mg/mL Zeocin). The day before the assay, 4×10^3 cells per well were seeded into an assay plate in 25 μL of medium and allowed to incubate overnight at 37° C. and 5% CO2. The following day, 25 μL of Calcium 6 dye was added to each well and incubated for two additional hours at 37° C. and 5% CO2. The test compound (a dose-response of eleven concentrations ranging from […]) was added to the cells to a final DMSO concentration of 0.56% v/v. One hour later, acetylcholine to a final concentration of 100 nM was added by the instrument and calcium flux-dependent fluorescence measured in real time. The concentration of acetylcholine used was that which stimulates 80% of the maximal response.

Row | Ki [1] [nM] | IC50 [2] [nM] | SMILES
1 | < 10 | < 10 | C[C@@H]1CN(c2ncc(C(F)(F)F)cn2)C[C@H](C)N1C(=O)NC1CC2(C1)CN(Cc1ccccc1)C2 [Compound 96, (2R,6S)—N-{2-Benzyl-2-azaspiro[3.3]heptan-6-yl}-2,6-dimethyl-4-[5-(trifluoromethyl)pyrimidin-2-yl]piperazine-1-carboxamide]
2 | 10 to 100 | < 10 | C[C@@H]1CN(c2cnc(C(F)(F)F)cn2)[C@@H](C)CN1C(=O)OC1CC2(C1)CN(Cc1ccccc1)C2 [Compound 106, 2-benzyl-2-azaspiro[3.3]heptan-6-yl (2R,5S)-2,5-dimethyl-4-[5-(trifluoromethyl)pyrazin-2-yl]piperazine-1-carboxylate]
3 | 10 to 100 | < 10 | C[C@@H]1CN(c2cnc(C(F)(F)F)cn2)C[C@H](C)N1C(=O)OC1CC2(C1)CN(Cc1ccccc1)C2 [Compound 141, 2-benzyl-2-azaspiro[3.3]heptan-6-yl (2R,6S)-2,6-dimethyl-4-[5-(trifluoromethyl)pyrazin-2-yl]piperazine-1-carboxylate]
4 | < 10 | < 10 | C[C@@H]1CN(c2ncc(C(F)(F)F)cn2)C[C@H](C)N1C(=O)OC1CC2(C1)CN(Cc1ccccc1)C2 [Compound 147, 2-Benzyl-2-azaspiro[3.3]heptan-6-yl (2R,6S)-2,6-dimethyl-4-[5-(trifluoromethyl)pyrimidin-2-yl]piperazine-1-carboxylate]
5 | < 10 |  | C[C@@H]1CN(c2ncc(OCC3CCC3)cn2)C[C@H](C)N1C(=O)OC1CC2(C1)CN(Cc1ccccc1)C2 [Compound 530, 2-benzyl-2-azaspiro[3.3]heptan-6-yl (2R,6S)-4-[5-(cyclobutylmethoxy)pyrimidin-2-yl]-2,6-dimethylpiperazine-1-carboxylate]
